Results taken from US8563542B2 (Cyclacel Limited, priority 2007, dated 2013).

What was measured:
[1] = tested on: A2780 and A2780/ADR cells; test: Cell viability assay (Alamar Blue, 72 h), parental/MDR pair, asymmetry ratio; assay type: cell-based, human; details: paired parental and MDR tumour cell lines; Example 9, FIG. 3
Source text: In vitro cell viability assays have been used to measure the effect of drug accumulation in paired parental and drug resistant tumour cell lines. The pairs used are the human ovarian carcinoma A2780 line with its MDR counterpart A2780/ADR and the human uterine sarcoma MES-SA line with its MDR counterpart MES-SA/Dx5 [Wesolowska O., et al. (2005) Anticancer Res., 25, 383-389].
Method: Cultivated human tumour cells of the ovarian cell line A2780 and its doxorubicin-resistant pair, A2780/ADR and the uterine cell line MES-SA and its doxorubicin-resistant pair, MES-SA/DX5 were seeded at 3000 cells per well in Nunc 96-well tissue culture plates, 100 μl per well in DMEM media containing 10% foetal calf serum and penicillin/streptomycin. […] The plates were then read at 544/595 nm.
The amount of Alamar Blue reagent reacted represents the metabolic activity of the cells. […] The values were calculated from the average of three individual measurements with blank correction (medium-only control).
The assay was performed on the Biomek FxP, automation platform from Beckman Coulter. The plates were read on the Paradigm plate reader supplied by Beckman Coulter. Asymmetry ratios were calculated as the IC50 value of the compound in the drug resistant cells divided by the IC50 value in the parental cells. […]

PLK1 = PLK1 (Homo sapiens, UniProt P53350); test: PLK1 protein kinase assay (CDC25C phosphorylation, [γ-32P]-ATP); assay type: biochemical; details: Table 3; read-out: PLK1 IC50
Chain of PLK1 (P53350 whole entry): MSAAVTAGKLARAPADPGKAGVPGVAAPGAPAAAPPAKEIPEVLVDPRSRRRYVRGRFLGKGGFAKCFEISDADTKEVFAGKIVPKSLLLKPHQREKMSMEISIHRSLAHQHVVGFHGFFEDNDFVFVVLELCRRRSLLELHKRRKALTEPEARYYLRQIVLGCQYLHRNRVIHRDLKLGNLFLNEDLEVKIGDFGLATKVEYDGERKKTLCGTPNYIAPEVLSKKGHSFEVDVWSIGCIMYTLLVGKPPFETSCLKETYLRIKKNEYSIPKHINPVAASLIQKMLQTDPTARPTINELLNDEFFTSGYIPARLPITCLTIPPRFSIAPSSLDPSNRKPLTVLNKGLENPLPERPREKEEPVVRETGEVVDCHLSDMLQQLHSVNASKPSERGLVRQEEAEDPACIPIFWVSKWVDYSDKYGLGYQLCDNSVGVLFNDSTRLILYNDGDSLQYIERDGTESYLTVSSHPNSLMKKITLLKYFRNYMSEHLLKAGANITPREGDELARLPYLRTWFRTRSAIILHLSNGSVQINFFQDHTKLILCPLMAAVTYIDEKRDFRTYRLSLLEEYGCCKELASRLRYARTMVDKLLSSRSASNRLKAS

IC50 (PLK1): < 100 nM
SMILES: COc1cc(C(=O)N[C@H]2CC[C@H](N3CCN(CC4CC4)CC3)CC2)ccc1Nc1ncc2c(n1)N(C1CCCC1)CC(C)(C)C(=O)N2C [Compound 372, 4-(9-cyclopentyl-5,7,7-trimethyl-6-oxo-6,7,8,9-tetrahydro-5H-pyrimido[4,5-b][1,4]diazepin-2-ylamino)-N-((trans)-4-(4-(cyclopropylmethyl)piperazin-1-yl)cyclohexyl)-3-methoxybenzamide]
Cellular efflux (MDR/parental cell asymmetry in cell viability assays) [1]: low cellular efflux
